Laboratory results as given in PMC11249012 (Journal of Medicinal Chemistry, 2024).

Experiments:
[1] = biological target: T1, HDAC7 (Homo sapiens, UniProt Q8WUI4); experiment: Biochemical assay for HDAC inhibition, HDAC7; settings: read-out: IC50 HDAC7; Table 1, purified enzyme; unit inferred
T1 sequence (Q8WUI4 1-952): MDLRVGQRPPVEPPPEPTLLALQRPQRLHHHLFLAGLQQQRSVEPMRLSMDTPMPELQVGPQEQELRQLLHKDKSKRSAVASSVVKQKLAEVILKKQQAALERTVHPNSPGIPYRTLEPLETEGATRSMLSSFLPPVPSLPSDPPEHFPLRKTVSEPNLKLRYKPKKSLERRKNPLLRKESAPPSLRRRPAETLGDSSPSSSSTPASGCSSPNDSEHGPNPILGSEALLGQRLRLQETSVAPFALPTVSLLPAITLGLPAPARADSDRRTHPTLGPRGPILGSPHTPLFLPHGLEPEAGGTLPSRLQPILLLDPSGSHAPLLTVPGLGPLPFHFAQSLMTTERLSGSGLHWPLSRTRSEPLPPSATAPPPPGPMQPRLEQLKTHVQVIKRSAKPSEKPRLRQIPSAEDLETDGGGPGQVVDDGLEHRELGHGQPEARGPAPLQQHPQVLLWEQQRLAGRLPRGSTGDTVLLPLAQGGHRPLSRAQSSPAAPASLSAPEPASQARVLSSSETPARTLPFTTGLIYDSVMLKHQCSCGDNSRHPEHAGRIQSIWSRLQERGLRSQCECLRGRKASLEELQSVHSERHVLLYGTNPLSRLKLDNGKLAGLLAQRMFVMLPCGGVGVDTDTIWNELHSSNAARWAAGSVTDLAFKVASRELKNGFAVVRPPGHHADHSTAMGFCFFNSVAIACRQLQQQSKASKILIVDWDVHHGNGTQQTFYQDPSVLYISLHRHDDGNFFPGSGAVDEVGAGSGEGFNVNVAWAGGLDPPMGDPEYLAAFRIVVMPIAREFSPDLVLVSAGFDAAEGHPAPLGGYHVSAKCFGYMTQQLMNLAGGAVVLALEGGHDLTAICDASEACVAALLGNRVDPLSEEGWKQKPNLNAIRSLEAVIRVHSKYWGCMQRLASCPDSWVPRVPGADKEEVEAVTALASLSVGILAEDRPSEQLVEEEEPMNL

[2] = biological target: T2, VDR (Mus musculus, UniProt P48281); experiment: Cyp24a1 induction in B16-F10 melanoma cells; format: cell-based; design: endogenous in cells; host or cells: mouse B16-F10 melanoma cells; settings: Figure S2A
T2 sequence (P48281 1-422): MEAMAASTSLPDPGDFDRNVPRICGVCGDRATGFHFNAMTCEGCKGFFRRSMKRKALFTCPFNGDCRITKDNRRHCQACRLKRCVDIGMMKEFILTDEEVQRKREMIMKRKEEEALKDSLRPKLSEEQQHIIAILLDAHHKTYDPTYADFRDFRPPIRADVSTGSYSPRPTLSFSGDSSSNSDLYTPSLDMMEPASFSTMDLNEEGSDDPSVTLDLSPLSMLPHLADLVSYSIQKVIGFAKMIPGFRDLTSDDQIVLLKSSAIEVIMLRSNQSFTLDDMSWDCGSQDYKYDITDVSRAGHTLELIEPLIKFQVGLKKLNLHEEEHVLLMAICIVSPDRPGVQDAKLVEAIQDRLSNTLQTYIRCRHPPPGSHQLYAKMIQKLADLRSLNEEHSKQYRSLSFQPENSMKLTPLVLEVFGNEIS
From the text: B16-F10 cells are responsive to 1,25D analogues[45] and HDACi[46],[47] and are therefore widely used in preclinical studies of melanoma solid tumor growth and metastases.[48] Although curable when treated early, melanoma is fatal when invasive. The American Cancer Society projected 97,610 new invasive melanoma cases in the US in 2023 and 7990 deaths. Current treatment options include chemotherapy, surgery, immunotherapy, or single agents targeting mutated genes such as B-RAF or C-KIT.[49]
RNA extraction was performed with the FavorPrep tissue total RNA mini kit (FAVORGEN Biotech Corporation FATRK 001) as per manufacturer’s instructions. cDNA was obtained from 1 μg of RNA using 5× All-in-One RT MasterMix (Applied Biological Materials (abm) Inc. G485) and diluted 5 times. qPCR was performed with BrightGreen 2× q-PCR MasterMix (abm MasterMix-LR-XL) on a Roche LightCycler 96 system. Expression of targeted genes was normalized to 18 s.
Figure S2. A. Analysis of Cyp24a1 induction by ZG126, DK406, AM193 along with 1,25D and SAHA as controls in B16-F10 cells. B. Western blots analyzing the effects of 1,25D, SAHA and hybrids on hyperacetylation of tubulin, H3K9 and H3K27 in B16-F10 cells. C. Quantification of the analyses of hyperacetylation in B16-F10 cells of tubulin, H3K9 and H3K27. D. Assessment of cytotoxicity in B16-F10 […]
(1 picture or pasted object on this page, not shown here)

[3] = tested on: 4T1 tumors; experiment: 4T1 TNBC model in vivo (primary tumor and lung metastases); design: species or system mouse; settings: 4T1 model; for #Surface metastases (lung): vehicle 166
Protocol: As 4T1 cells are aggressively metastatic, we can also assess the antimetastatic activity in the same experiment. All treatments were well tolerated, and, as in the B16-F10 model, none induced weight loss or other signs of stress over the course of the experiment (Figure 7A). Treatments reduced the primary tumor burden to varying degrees.
The antimetastatic activity was determined by counting the number of surface lung metastases of duplicate samples using a stereomicroscope. […] This degree of efficacy is remarkable, as in previous experiments, DK-406 reduced the metastatic burden by ∼2-fold.[30]
Finally, mice were sacrificed, and lungs of 4T1-bearing mice were removed to evaluate the efficiency of treatments on lung metastases.

## CCC(CC)(c1ccc(C(=O)NCCCCC(=O)NO)cc1)c1ccc(OCC(O)C(C)(C)C)c(C)n1 (stereo not drawn) [ZG-126, 4-(3-(5-(2-Hydroxy-3,3-dimethylbutoxy)-6-methylpyridin-2-yl)pentan-3-yl)-N-(5-(hydroxyamino)-5-oxopentyl)benzamide]
[1]
  IC50: 55.4 µM
[2]
  Cyp24a1 induction: mimicked
[3]; BALB/c mice, ZG-126 high dose 5 mg/kg, statistically significant
  reduction in tumor burden: ~50%
[3]; 1,25D 0.25 μg/kg, SAHA 80 mg/kg, AM-193 0.2 mg/kg, ZG-126 high 5.0 mg/kg
  #Surface metastases (lung): 47
[3]; ZG-126 low 1.5 mg/kg
  #Surface metastases (lung): 126
[3]; high-dose ZG-126 (5 mg/kg)
  reduction of surface lung metastases: ~4 fold
